Experiments:
[1] = test system: sheep red blood cell (SRBC) hemagglutination; assay: immunostimulation (humoral): sheep red blood cell (SRBC) hemagglutination; assay type: in vivo, mouse (ICR, female)
Experimental: (§1) Groups of 6 mice were sensitized by the IV injection of 0.2 ml of a 2% SRBC suspension. On the 9th day following sensitization, blood samples were withdrawn from the orbital sinus and equal parts of complement inactivated serum from the group of 6 mice were pooled to yield a single 0.25 ml sample. Serial 2-fold dilutions were then carried out 10 times in the presence of added complement. […] Serum titers of less than 16 or greater than 128 are considered significant and indicate possible immunosuppressant and immunostimulant activity, respectively.
(§2) For immunostimulant activity, test substance or vehicle was administered i.p. to groups of mice for 3 consecutive days, and sensitized to SRBCs 2 hours after the third (last) injection. For immunosuppressant activity, test substance or vehicle was administered i.p. to groups of mice for 3 consecutive days beginning 2 hours after sensitization to SRBCs.

Psoriasis = assay: clinical treatment of psoriasis; assay type: in vivo, human
Experimental: 17 patients, 11 men and 6 women, were treated with rhamnolipid (II). Among these, 12 patients were suffering from Psoriasis, 2 from Neurodermitis, 1 from Lichen ruber planus, 1 from Serborhoic dermatitis and one from Dermatitis circumscripta unilocularis eczematoides.
All patients were treated by application of a cream containing rhamnolipid II over selected psoriatic localities, 2 times a day for 21 days.
The remaining psoriatic localities on the body were treated with local corticosteroid.
The treatment and the follow-up of the patients was a "double blind" experiment.
The therapeutic efficacy was monitored by PASI-index.
After observing positive results with the first six psoriatic patients, who were treated and monitored until the end of the year, rhamnolipid was applied on larger psoriatic surfaces (up to a half of the patient's body where psoriatic lesions existed). Also, occlusions were used (up to 48 hours) and the duration and usage of occlusions was prolonged up to 35 days.
Patients were seen 3, 6 and 9 months after treatment and they were instructed not to apply any other local preparations at the same localities where rhamnolipic II was applied.

papain = papain (Carica papaya, UniProt P00784); assay: enzyme inhibition, papain; assay type: biochemical
papain, sequence (P00784 134-345): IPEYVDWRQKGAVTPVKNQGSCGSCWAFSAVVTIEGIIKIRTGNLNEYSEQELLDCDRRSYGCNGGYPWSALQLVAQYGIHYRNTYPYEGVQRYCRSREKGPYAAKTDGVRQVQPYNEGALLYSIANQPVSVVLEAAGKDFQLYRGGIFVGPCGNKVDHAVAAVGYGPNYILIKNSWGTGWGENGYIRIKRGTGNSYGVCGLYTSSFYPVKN
Experimental: (§3) Rhamnolipid (II) was tested in vitro against a wide array of enzymes.
(§4) All enzyme assays were done spectrophotometrically by computer linked automatic microplate reader (Labsystem Multiskan) and Diode Array spectrophotometer (Perkin Elmer).

semliki forest virus = assay: effect on viruses, semliki forest; assay type: cell-based; details: concentrations ≤100 ug/ml
Experimental: Tests were performed according to D. A. Vanden Berghe et al., Inst. Pasteur 84,101 (1986). Rhamnolipid (II) was toxic for VERO cells in concentrations ≥200 ug/ml, and cytotoxic on MT4 cells in concentrations >169.40 ug/ml.

[2] = test system: T-cells isolated from mouse thymus; assay: T-lymphocyte proliferation; assay type: cell-based
Experimental: (§5) Procedure: T-cells were isolated from mouse thymus using conventional procedures, and suspended in DMEM. 5×10^6 cells/ml were incubated overnight at 37° C. to assess stimulation (positive score, related to 3 ug/ml Concanavalin A) or suppression (negative score, related to blank control) of cell proliferation. Test substance was evaluated under these conditions at 10, 1, 0.1, 0.01, 0,001 uM. After overnight incubation, 2 uCi [^3 H] thymidine was added to each well. Cells were harvested after an additional 48 hour incubation, and thymidine incorporation assessed by liquid scintillation counting.

[3] = test system: T-cells isolated from mouse thymus; assay: T-lymphocyte proliferation + Con A; assay type: cell-based
Experimental: as §5, with “cells/ml are” for “cells/ml were”, “C. in the presence of 3 ug/ml Con A” for “C.”, “to 10 U/ml rat interleukin-2)” for “to 3 ug/ml Concanavalin A)”, “to” for “to blank”, “1, 0.1 and 0.01” for “1, 0.1, 0.01, 0,001”, “thymidine is” for “thymidine was”

Lichen ruber planus = details: 1% rhamnolipid ointment; Belgium patent No. 1,005,704; cited from earlier work
[4] = test system: B-cells isolated from mouse spleen; assay: B-lymphocyte proliferation + LPS; assay type: cell-based
Experimental: Procedure: B-cells were isolated from mouse spleen using convnetional procedures, and suspended in DMEM. 10^6 cells/ml were incubated overnight at 37° C. in the presence of 10 ug/ml lipopolysaccharide (LPS) to assess stimulation (positive score, related to 1 ng/ml rat interleukin-5) or suppression (negative score, related to control) of cell proliferation. The test substance was evaluated under these conditions at 10, 1, 0.1, and 0.01 uM. After overnight incubation, 2 uCi [^3 H] thymidine was added to each well. Cells were harvested after an additional 48 hour incubation, and thymidine incorporation assessed by liquid scintillation counting.

in vitro = details: monkey, vero cells
acetylcholinesterase = assay: enzyme inhibition, acetylcholinesterase; assay type: biochemical
Experimental: as §3
The following enzymes were inhibited at the various rhamnolipid concentrations indicated:
as §4

[5] = test system: sheep red blood cell (SRBC) hemagglutination; assay: immunosuppression (humoral): sheep red blood cell (SRBC) hemagglutination; assay type: in vivo, mouse (ICR, female)
Experimental: as §1, §2

mice C57B1/6 = assay: range-finding study phase (single intravenous dose)
[6] = as above; details: mouse, in vivo, iv
[7] = fourth day after application, IV

CCCCCCCC(CC(=O)O)OC(=O)CC(CCCCCCC)O[C@@H]1O[C@@H](C)[C@H](O)[C@@H](O)[C@H]1O[C@@H]1O[C@@H](C)[C@H](O)[C@@H](O)[C@H]1O (stereo partly drawn) [Rhamnolipid (II), (alpha-L-rhamnopyranosyl-(1,2)alpha-L-rhamnopyranosyl)-3-hydroxydecanoyl-3-hydroxydecanoic acid]
SERUM TITER (Reciprocal Serum Dilution) ([1]; IP 0.1 × 3 mg/kg): 64 | SERUM TITER (Reciprocal Serum Dilution) ([1]; IP 1 × 3 mg/kg): 64 | SERUM TITER (Reciprocal Serum Dilution) ([1]; IP 10 × 3 mg/kg): 128 | SERUM TITER (Reciprocal Serum Dilution) ([1]; IP 100 × 3 mg/kg): 8 | died on Day 3 ([1]; IP 100 × 3 mg/kg): 1/6 | curative effects in comparison with corticosteroids (Psoriasis; 1% concentration): long-lasting curative effects | remission of the treated area (Psoriasis; 1% concentration, some patients): still in remission of the treated area after three years | appearance of relapses (Psoriasis; 10 months after treatment, versus local corticosteroid): significantly delayed | results on psoriatic lesions (Psoriasis; cream, 2 times a day for 21 days, follow up 3, 6 and 9 months): good results | time to curative effect versus local corticosteroid (Psoriasis; in most cases): sooner or in the same period of time it took local corticosteroid | relapses (Psoriasis; some patients, 10 months following the treatment, larger surfaces, occlusions): no relapses were observed even after 10 months | effect on enzyme (papain): no effect | antiviral activity (semliki forest virus): no activity | T-cell proliferation ([2]; 10 uM, without Con A): inhibited | in vitro T cell immunosuppression activity ([2]; 10 uM, without ConA): T cell immunosuppression activity | activation at 0.001 µM ([2]; Mus musculus, T-cell, 0.001 uM, 0.5% DMSO, read-out: % Stimulation (+)/Suppression (-)): -2% | activation at 0.01 µM ([2]; Mus musculus, T-cell, 0.01 uM, 0.5% DMSO, read-out: % Stimulation (+)/Suppression (-)): 0% | activation at 0.1 µM ([2]; Mus musculus, T-cell, 0.1 uM, 0.5% DMSO, read-out: % Stimulation (+)/Suppression (-)): 1% | activation at 1 µM ([2]; Mus musculus, T-cell, 1 uM, 0.5% DMSO, read-out: % Stimulation (+)/Suppression (-)): -3% | activation at 10 µM ([2]; Mus musculus, T-cell, 10 uM, 0.5% DMSO, read-out: % Stimulation (+)/Suppression (-)): -24% | T-cell proliferation ([3]; 10 uM, with Con A): inhibited | in vitro T cell immunosuppression activity ([3]; 10 uM, with ConA): T cell immunosuppression activity | activation at 0.001 µM ([3]; Mus musculus, T-cell, read-out: % Stimulation (+)/Suppression (-)): 4% | activation at 0.01 µM ([3]; Mus musculus, T-cell, 0.01 uM, ConA, 0.5% DMSO, read-out: % Stimulation (+)/Suppression (-)): 7% | activation at 0.1 µM ([3]; Mus musculus, T-cell, 0.1 uM, ConA, 0.5% DMSO, read-out: % Stimulation (+)/Suppression (-)): 7% | activation at 1 µM ([3]; Mus musculus, T-cell, 1 uM, ConA, 0.5% DMSO, read-out: % Stimulation (+)/Suppression (-)): 3% | activation at 10 µM ([3]; Mus musculus, T-cell, 10 uM, ConA, 0.5% DMSO, read-out: % Stimulation (+)/Suppression (-)): -43% | activity in treatment of Lichen rubber planus (Lichen ruber planus): strong activity | B-cell proliferation ([4]; 10 uM and 1 uM, added lipopolysaccharide): significant suppression | activation at 0.001 µM ([4]; Mus musculus, B-cell, read-out: % Stimulation (+)/Suppression (-)): 13% | activation at 0.01 µM ([4]; Mus musculus, B-cell, 0.01 uM, LPS, 0.5% DMSO, read-out: % Stimulation (+)/Suppression (-)): -15% | activation at 0.1 µM ([4]; Mus musculus, B-cell, 0.1 uM, LPS, 0.5% DMSO, read-out: % Stimulation (+)/Suppression (-)): -9% | activation at 1 µM ([4]; Mus musculus, B-cell, 1 uM, LPS, 0.5% DMSO, read-out: % Stimulation (+)/Suppression (-)): -25% | activation at 10 µM ([4]; Mus musculus, B-cell, 10 uM, LPS, 0.5% DMSO, read-out: % Stimulation (+)/Suppression (-)): -54% | MCC (in vitro): ≥ 200 µg/mL | concentration at which the enzyme was inhibited (acetylcholinesterase): 1 mg/mL | SERUM TITER (Reciprocal Serum Dilution) ([5]; IP 0.1 × 3 mg/kg): 32 | SERUM TITER (Reciprocal Serum Dilution) ([5]; IP 1 × 3 mg/kg): 32 | SERUM TITER (Reciprocal Serum Dilution) ([5]; IP 10 × 3 mg/kg): 128 | SERUM TITER (Reciprocal Serum Dilution) ([5]; IP 100 × 3 mg/kg): 16 | died on Day 3 ([5]; IP 100 × 3 mg/kg): 2/6 | single dose toxicity (mice C57B1/6; IV application): 7.5 mg/kg | lymphocytes (mice C57B1/6; [7]): significant decrease | neutrophils (mice C57B1/6; [7]): significant increase | behavior and appearance of treated mice (mice C57B1/6; observation period, IV single dose): no changes | lower bracket dose (LBD) (mice C57B1/6; single intravenous dose): 67.5 mg/kg | upper bracket dose (UBD) (mice C57B1/6; single intravenous dose): 127.5 mg/kg | LD50 [6]: 105 mg/kg

Source: patent US5466675A, “Immunological activity of rhamnolipids” (priority 1992, dated 1995)
